In the supplement of paper PMC8671470:

Tests used:
Conditions in all cases: 72 h
[1] = system: LAMA-84; test: cell viability (% survival relative to DMSO control, bortezomib = 0%); higher = less cytotoxic
Method in brief: (§1)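 In 384-well plates pre-printed with compounds at 1, 10, 100, 1000 or 10000 nM, duplicate wells received cells from 10 AML and 5 CML lines at densities within the linear growth range. The plates stayed at 37 °C with 5% CO2 for 72 h before CellTiter-Glo luminescence was recorded. Each entry is averaged percent survival. Scaling placed vehicle at 100% and a 10 µM positive control at 0%.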

[2] = system: Mono-Mac-6; test: as above
Method in brief: as §1

[3] = system: BV-173; test: as above
Method in brief: as §1

[4] = system: HL-60; test: area under dose-response curve (viability, 1 nM-10 uM) (fraction (0-1)); higher = more sensitive
Method in brief: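 A rescreen of the full library used HL-60 cells in RPMI 1640 with 10% FBS on 384-well plates, run in duplicate at five tenfold concentrations (1–10,000 nM). Each screen included DMSO or 100 nM of one of three metabolic inhibitors and ran 72 h at 37 °C, 5% CO2. CellTiter-Glo viability was scaled between DMSO and 10 μM proteasome-inhibitor wells. Any area under the curve comes from four-parameter log-logistic fits with drc and PharmacoGx.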

[5] = co-treatment: pictilisib 100 nM
[6] = co-treatment: GSK2194069 100 nM

Row | SMILES | cell viability ([1]; 1 nM) [%] | cell viability ([1]; 10 nM) [%] | cell viability ([1]; 100 nM) [%] | cell viability ([1]; 1000 nM) [%] | cell viability ([1]; 10000 nM) [%] | cell viability ([2]; 1 nM) [%] | cell viability ([2]; 10 nM) [%] | cell viability ([2]; 100 nM) [%] | cell viability ([2]; 1000 nM) [%] | cell viability ([2]; 10000 nM) [%] | cell viability ([3]; 1 nM) [%] | cell viability ([3]; 10 nM) [%] | cell viability ([3]; 100 nM) [%] | cell viability ([3]; 1000 nM) [%] | cell viability ([3]; 10000 nM) [%] | area under dose-response curve ([4]; co-treatment: AZD3965 100 nM) | area under dose-response curve ([4]; co-treatment: DMSO vehicle) | area under dose-response curve [4, 5] | area under dose-response curve [4, 6]
1 | CCn1c(=Cc2cccc[n+]2CC)sc(=C2Sc3ccccc3N2C)c1=O [MKT 077] | 105 | 94.7 | 114 | 104 | 71.6 | 100 | 110 | 112 | 102 | 87.8 | 107 | 108 | 102 | 95.2 | 83.4 | < 0.0301 | < 0.0301 | < 0.0301 | 
2 | COC(=O)c1cc2c(C(F)(F)F)cc(-c3ccccc3)cc2n1O [NHI-2] | 91.9 | 95 | 93.9 | 87.5 | 76.4 | 93.6 | 102 | 114 | 89.5 | 103 | 100 | 100 | 101 | 73.7 | 94.2 | < 0.0301 | < 0.0301 | < 0.0301 | < 0.0301
3 | CCCCCCCC/C=C\CCCCCCCC(=O)Nc1ccccc1 [Octadec-9-Enoic Acid Phenylamide] | 107 | 97.8 | 101 | 103 | 99.4 | 97.1 | 103 | 108 | 99.5 | 101 | 98.4 | 94.8 | 99.7 | 100 | 95.7 | < 0.0301 | < 0.0301 | < 0.0301 | < 0.0301
4 | CC[C@H](C)[C@H](N)C(=O)N1CCSC1 [P32/98] | 96.6 | 102 | 102 | 106 | 103 | 93.6 | 99 | 109 | 103 | 101 | 96.2 | 95.3 | 96.7 | 115 | 84 | < 0.0301 | < 0.0301 | < 0.0301 | < 0.0301
